Source: ChEMBL document CHEMBL5126582, “Discovery of (2-(pyrrolidin-1-yl)thieno[3,2-d]pyrimidin-4-yl)(3,4,5-trimethoxyphenyl)methanone as a novel potent tubulin depolymerizing and vascular disrupting agent” (Eur J Med Chem, 2022)

How the values were obtained:
[1] = test system: A549; experiment: cells; details: Homo sapiens, A549, 48 h
Description: Antiproliferative activity against human A549 cells assessed as reduction in cell viability incubated for 48 hrs by MTS assay

[2] = test system: HCT-116; experiment: Antiproliferative activity against human HCT-116 cells assessed as reduction in cell viability incubated for 48 hrs by MTS assay; format: functional, cell-based; details: HCT-116, 48 h
[3] = test system: HL-60; experiment: Antiproliferative activity against human HL-60 cells assessed as reduction in cell viability incubated for 48 hrs by MTS assay; format: functional, cell-based; details: HL-60, 48 h
[4] = test system: HeLa; experiment: Antiproliferative activity against human HeLa cells assessed as reduction in cell viability incubated for 48 hrs by MTS assay; format: functional, cell-based
[5] = test system: HeLa; experiment: Induction of mitochondrial membrane potential alteration in human HeLa cells assessed as late apoptotic cells at 10 nM measured after 48 hrs by JC1 staining-based flow cytometry analysis (reference value: 0.009%); format: functional
[6] = test system: HeLa; experiment: Induction of apoptosis in human HeLa cells assessed as early apoptotic cells at 10 nM incubated for 72 hrs by annexin V FITC and propidium iodide staining based flow cytometry analysis (reference value: 2.36%); format: functional
[7] = test system: HeLa; experiment: Induction of mitochondrial membrane potential alteration in human HeLa cells assessed as early apoptotic cells at 10 nM measured after 48 hrs by JC1 staining-based flow cytometry analysis (reference value: 9.07 %); format: functional
[8] = test system: HeLa; experiment: Induction of apoptosis in human HeLa cells assessed as viable cells at 10 nM incubated for 72 hrs by annexin V FITC and propidium iodide staining based flow cytometry analysis (reference value: 90.1%); format: functional; details: read-out: Activity
[9] = test system: HeLa; experiment: Induction of apoptosis in human HeLa cells assessed as late apoptotic cells at 10 nM incubated for 48 hrs by annexin V FITC and propidium iodide staining based flow cytometry analysis (reference value: 8.87%); format: functional
[10] = test system: HeLa; experiment: Induction of apoptosis in human HeLa cells assessed as early apoptotic cells at 10 nM incubated for 48 hrs by annexin V FITC and propidium iodide staining based flow cytometry analysis (reference value: 6.01%); format: functional
[11] = test system: HeLa; experiment: Induction of apoptosis in human HeLa cells assessed as late apoptotic cells at 10 nM incubated for 24 hrs by annexin V FITC and propidium iodide staining based flow cytometry analysis (reference value: 0.05%); format: functional
[12] = test system: HeLa; experiment: Induction of apoptosis in human HeLa cells assessed as necrotic cells at 10 nM incubated for 48 hrs by annexin V FITC and propidium iodide staining based flow cytometry analysis (reference value: 1.85 %); format: functional
[13] = test system: HeLa; experiment: Induction of apoptosis in human HeLa cells assessed as late apoptotic cells at 10 nM incubated for 72 hrs by annexin V FITC and propidium iodide staining based flow cytometry analysis (reference value: 4.70%); format: functional
[14] = test system: HeLa; experiment: Induction of apoptosis in human HeLa cells assessed as necrotic cells at 10 nM incubated for 24 hrs by annexin V FITC and propidium iodide staining based flow cytometry analysis (reference value: 1.14 %); format: functional
[15] = test system: HeLa; experiment: Induction of apoptosis in human HeLa cells assessed as necrotic cells at 10 nM incubated for 72 hrs by annexin V FITC and propidium iodide staining based flow cytometry analysis (reference value: 2.88 %); format: functional
[16] = test system: HeLa; experiment: Induction of apoptosis in human HeLa cells assessed as viable cells at 10 nM incubated for 48 hrs by annexin V FITC and propidium iodide staining based flow cytometry analysis (reference value: 85.5%); format: functional; details: read-out: Activity
[17] = test system: HeLa; experiment: Induction of apoptosis in human HeLa cells assessed as early apoptotic cells at 10 nM incubated for 24 hrs by annexin V FITC and propidium iodide staining based flow cytometry analysis (reference value: 0.12%); format: functional
[18] = test system: HeLa; experiment: Induction of mitochondrial membrane potential alteration in human HeLa cells assessed as viable cells at 10 nM measured after 48 hrs by JC1 staining-based flow cytometry analysis (reference value: 90.9%); format: functional; details: read-out: Activity
[19] = test system: HeLa; experiment: Induction of apoptosis in human HeLa cells assessed as viable cells at 10 nM incubated for 24 hrs by annexin V FITC and propidium iodide staining based flow cytometry analysis (reference value: 85.7%); format: functional; details: read-out: Activity
[20] = test system: HeLa; experiment: Induction of mitochondrial membrane potential alteration in human HeLa cells assessed as necrotic cells at 10 nM measured after 48 hrs by JC1 staining-based flow cytometry analysis (reference value: 0%); format: functional

SMILES	IC50 [1]	IC50 [2]	IC50 [3]	IC50 [4]	further results
CCN(CC)c1nc(C(=O)c2cc(OC)c(OC)c(OC)c2)c2sccc2n1	> 10000 nM	> 10000 nM	> 10000 nM	> 10000 nM	–
COc1nc(C(=O)c2cc(OC)c(OC)c(OC)c2)c2sccc2n1	965 nM	329 nM	224 nM	263 nM	–
COc1cc(C(=O)c2nc(N3CCC(O)C3)nc3ccsc23)cc(OC)c1OC (stereo not given)	4980 nM	1400 nM	3430 nM	2200 nM	–
CNc1nc(C(=O)c2cc(OC)c(OC)c(OC)c2)c2sccc2n1	45 nM	114 nM	32 nM	58 nM	–
CCNc1nc(C(=O)c2cc(OC)c(OC)c(OC)c2)c2sccc2n1	147 nM	309 nM	174 nM	37 nM	–
COc1cc(C(=O)c2nc(N3CC=CC3)nc3ccsc23)cc(OC)c1OC	101 nM	26 nM	93 nM	22 nM	–
COc1cc(C(=O)c2nc(N3CCC3)nc3ccsc23)cc(OC)c1OC	3140 nM	278 nM	486 nM	758 nM	–
COc1cc(C(=O)c2nc(N3CCS(=O)(=O)CC3)nc3ccsc23)cc(OC)c1OC	> 10000 nM	> 10000 nM	> 10000 nM	> 10000 nM	–
COc1cc(C(=O)c2nc(NC3CCCC3)nc3ccsc23)cc(OC)c1OC	> 10000 nM	> 10000 nM	8400 nM	> 10000 nM	–
COc1cc(C(=O)c2nc(C3CCCC3)nc3ccsc23)cc(OC)c1OC	> 10000 nM	> 10000 nM	> 10000 nM	> 10000 nM	–
COc1cc(C(=O)c2nc(NC3CCOCC3)nc3ccsc23)cc(OC)c1OC	> 10000 nM	> 10000 nM	8050 nM	> 10000 nM	–
CCOc1nc(C(=O)c2cc(OC)c(OC)c(OC)c2)c2sccc2n1	> 10000 nM	> 10000 nM	7090 nM	> 10000 nM	–
COc1cc(C(=O)c2nc(N3CCOCC3)nc3ccsc23)cc(OC)c1OC	> 10000 nM	> 10000 nM	> 10000 nM	> 10000 nM	–
COc1ccc(/C=C\c2cc(OC)c(OC)c(OC)c2)cc1O [COMBRETASTATIN A4]	7.5 nM	1.1 nM	1.3 nM	1.4 nM	Activity [5]: 0%; Activity [6]: 17%; Activity [7]: 18%; viability at 0.01 µM [8]: 25.1%; Activity [9]: 51.9%; Activity [10]: 20.1%; Activity [11]: 7.5%; Activity [12]: 11.2%; Activity [13]: 31.8%; Activity [14]: 8.87%; Activity [15]: 23.3%; viability at 0.01 µM [16]: 16.9%; Activity [17]: 7.41%; viability at 0.01 µM [18]: 82%; viability at 0.01 µM [19]: 79.4%; Activity [20]: 0.011%
COc1cc(C(=O)c2nc(N3CCSCC3)nc3ccsc23)cc(OC)c1OC	> 10000 nM	> 10000 nM	> 10000 nM	> 10000 nM	–
COc1cc(C(=O)c2nc(N3CCC(F)(F)C3)nc3ccsc23)cc(OC)c1OC	303 nM	507 nM	377 nM	351 nM	–
